Reference: patent publication US8716355B2, “Hydroxylated tolans and related compounds in the treatment of a cancer” (Kent State University, priority 2007, dated 2014)

What was measured:
Vero cells = assay: Cytotoxicity (CD50) on Vero cells; type: cell-based; details: 48 hours of exposure
Description: See Example II for tumor cell cytotoxicity of these compounds. […] NAB group 32 contains two compounds, Tolan-2 (also designated herein as KST-201) and Stil-2. Based on the NAB, they were classified as topological isomers. However, chemically they differ because Stil-2, a […], contained a double bonded linker, while Tolan-2 contained a triple bonded linker. The cytotoxicity of the two molecules on Vero cells differed markedly: Tolan-2 was less toxic than Stil-2.

HSV-1 = HSV-1 replication in infected Vero cells (plaque assay); type: cell-based, Herpes Simplex Virus-Type 1; details: at CD50, 75% and 50% of CD50; 24, 48, 72 h
Protocol: For this purpose HSV-1 replication at 24, 48 and 72 h was examined in the presence or absence of varying concentrations of the polyphenol.
The SI is the ratio of the CD50 divided by a selected inhibitory concentration (IC %).
Viral inhibition by Tolan-3 appeared to occur after viral entry into cells. […] Subsequently, the compound was removed and replaced with culture medium alone, and the incubated continued for 48 or 72 more hrs. In a second experiment, HSV-1 infected Vero cells were incubated with 350 μM Tolan-3 for 48 h. Thereafter, the Tolan-3 was removed and replaced by medium and the incubation continued for an additional 24 h. Viral titers were calculated by a standard plaque assay.

prostate cancer = assay: Prostate cancer patients (Example VIII A); type: in vivo, human; details: daily 10 μg to 5 mg/Kg; no significant differences between the four groups
Protocol: A group of 40 men aged 55-75 suffering from prostate cancer receive a daily dosage of between 10 μg and 5 mg/Kg body weight of KST-201, KST-213, KST-301 or KST-401 (10 patients per compound). Examination of the patients by clinical, radiographic and histopathological tests show significant shrinkage in tumors, and signs of cell death in 38% of the patients; there are no significant differences between the four treatment groups.

bladder cancer = assay: Bladder cancer patients (Example VIII B); type: in vivo, human; details: intravenous 10 μg to 5 mg/kg over three months; for Patients with significant remission: no differences between compounds
Protocol: A group of 20 men and 20 women aged 50-75 with bladder cancer are treated by intravenous injection of between 10 μg and 5 mg/kg of KST-201, KST-213, KST-301 or KST-401. Each compound is given to a group of 5 men and 5 women) over a period of three months. Clinical, radiographic and histopathological tests show significant remission in 35% of patients, accompanied by signs of cell death in 45%. There are no significant differences between the results with the four compounds.

breast cancer = assay: Breast cancer prevention, skin patch (Example VIII C); type: in vivo, human; details: transdermal patch 10 mg to 100 mg daily, one-year study
Protocol: This study investigates whether KST-201, KST-213, KST-301 and KST-401 administered transdermally each day through a skin patch aid in preventing breast cancer or metastatic cancer following cancer therapy. Patches are prepared with a lipophilic carrier which is readily absorbed through the skin (glycerol cold cream containing glycerin and peanut oil). The HT compound is mixed with the lipophilic cream such that each patch comprises 10 mg to 100 mg of active compound. The patch is applied to the skin each day, and rapid absorption occurs. After two hours, the patch is removed.

ovarian cancer = assay: Ovarian cancer patients (Example VIII D); type: in vivo, human; details: daily gelatin capsule 200 mg
Protocol: A study is carried out in a group of 40 women with ovarian cancer of various grades to determine the effect of treatment with compounds of KST-201, KST-213, KST-301 and KST-401. The administration protocol involves daily administration of a gelatin capsule containing 200 mg of active compound.

colon cancer = assay: Colon cancer patients (Example VIII E); type: in vivo, human; details: for Dissemination of the tumors: daily bolus injections (intravenous or intramuscular) of 2 g; for Cancer marker carcinoembryonic antigen (CEA) / Progression of the tumor: intravenous infusion 2 g daily for three weeks
Protocol: Eight patients suffering from advanced colon cancer are treated daily for three weeks with an intravenous infusion of 2 g of the compounds KST-201, KST-213, KST-301 or KST-401 dissolved in saline. Two patients are assigned to each compound. The compounds are dissolved in sterile saline. […] Progression of the tumor is also arrested over the treatment period.
Another eight patients with terminal colon cancer are treated by daily bolus injections (intravenous or intramuscular) of 2 g of KST-201, KST-213, KST-301 or KST-401.

Mushroom tyrosinase = assay: Inhibition of mushroom tyrosinase activity; type: biochemical; details: concentration not given
Protocol: All chemical used for reagents were purchased from Sigma Chemical Company. KST201 at each tested concentration (1000, 250 and 100 μM) was dissolved in 10% ethanol from a master mixture of the drug prepared at 0.1M in 100% ethanol.
Mushroom tyrosinase (Sigma) was diluted in 50 mM phosphate buffer, pH 6.5 to yield a concentration of 16 U/μl. […] A master mix containing 0.5 mM L-DOPA [3,4-dihydroxy-1-phenylalanine], 10 mM Sodium L-tyrosine in 50 mM phosphate buffer, pH 6.5 was prepared. The KST-201 dilutions were preincubated with the enzyme for 20 minutes. The samples were pipetted into 24 well plates and the master mixture added quickly. The reaction was read using a kinetic format in which wells were read every 30 seconds over a course of 10 minutes at a wavelength of 475 nm using a Synergy HT Plate reader. A kinetic curve was generated for each sample compared to a total reaction with mushroom tyrosinase without a drug (total).

rat-organ homogenates [1] = details: cited from earlier work
rat-organ homogenates [2] = details: cited from earlier work; remark: listed apart in the source
rat erythrocyte (RBC) = details: cited from earlier work

| SMILES | CD50 (Vero cells) | Log CD50 (Vero cells) | Inhibition (%) of Fe2+ − VitC induced level of MDA at 15 μM, In rat brain (rat-organ homogenates [1]) | Inhibition (%) of Fe2+ − VitC induced level of MDA at 15 μM, In rat kidney (rat-organ homogenates [1]) | Inhibition (%) of Fe2+ − VitC induced level of MDA at 15 μM, In rat liver (rat-organ homogenates [1]) | Inhibition (%) of autooxidation MDA level at 7.5 μM, In rat brain (rat-organ homogenates [2]) | Inhibition (%) of autooxidation MDA level at 7.5 μM, In rat kidney (rat-organ homogenates [2]) | Inhibition (%) of autooxidation MDA level at 7.5 μM, In rat liver (rat-organ homogenates [2]) | Inhibition (%) of RBC hemolysis induced by H2O2 at 4 μM (rat erythrocyte (RBC)) | also measured |
| --- | --- | --- | --- | --- | --- | --- | --- | --- | --- | --- |
| Oc1ccc(C#Cc2ccc(C(F)(F)F)cc2)cc1 [KST-213, 4-hydroxy-4′-trifluoromethyltolan] | 48.2 µM | 1.68 | – | – | – | – | – | – | – | Effect on HSV-1 viral replication in Vero cells (in words) (HSV-1): substantially inhibited; Patients with significant shrinkage in tumors, and signs of cell death (prostate cancer): 38%; Patients with signs of cell death (bladder cancer): 45%; Patients with significant remission (bladder cancer): 35%; Breast cancer or metastatic cancer in high-risk group (breast cancer): does not show any evidence of breast cancer or other metastatic cancer; Rate of production of ovarian cancer markers (Muc-1, Sp17) (ovarian cancer): significant decrease; Tumor growth during study period (ovarian cancer): Tumors regress or show no further growth; Dissemination of the tumors (colon cancer): dissemination of the tumors is diminished; Cancer marker carcinoembryonic antigen (CEA) (colon cancer): significant reduction; Progression of the tumor (colon cancer): arrested |
| Oc1cc(O)cc(C#Cc2cc(O)cc(O)c2)c1 [KST-401, 3,3′,5,5′-tetrahydroxytolan] | 103 µM | 2.01 | – | – | – | – | – | – | – | Effect on HSV-1 viral replication in Vero cells (in words) (HSV-1): substantial viral inhibition; % inhibition of mushroom tyrosinase activity (Mushroom tyrosinase): 22.7±6.5%; Patients with significant shrinkage in tumors, and signs of cell death (prostate cancer): 38%; Patients with signs of cell death (bladder cancer): 45%; Patients with significant remission (bladder cancer): 35%; Breast cancer or metastatic cancer in high-risk group (breast cancer): does not show any evidence of breast cancer or other metastatic cancer; Rate of production of ovarian cancer markers (Muc-1, Sp17) (ovarian cancer): significant decrease; Tumor growth during study period (ovarian cancer): Tumors regress or show no further growth; Dissemination of the tumors (colon cancer): dissemination of the tumors is diminished; Cancer marker carcinoembryonic antigen (CEA) (colon cancer): significant reduction; Progression of the tumor (colon cancer): arrested |
| Oc1ccc(/C=C/c2ccccc2)cc1 [Stil-1] | 131 µM | 2.12 | – | – | – | – | – | – | – | – |
| Oc1ccc(/C=C/c2ccc(O)cc2)cc1 [Stil-2] | 53.3 µM | 1.73 | – | – | – | – | – | – | – | Effect on HSV-1 viral replication in Vero cells (in words) (HSV-1): no substantial reduction in viral replication |
| Oc1cc(O)cc(/C=C/c2cc(O)cc(O)c2)c1 [Stil-4, tetrahydroxystilbene] | >200 µM | 2.30 | – | – | – | – | – | – | – | – |
| Oc1ccc(/C=C/c2ccc(O)cc2O)cc1 [trans-2,4,4′-Trihydroxystilbene] | – | – | 94.40% | 87.69% | 92.46% | 90.91% | 66.46% | 93.85% | 81.85% | – |
| Oc1ccc(/C=C/c2ccccc2)c(O)c1 [trans-2,4-Dihydroxystilbene] | – | – | 55.19% | 39.08% | 42.58% | 30.07% | 32.27% | 42.31% | 43.72% | – |
| Oc1ccc(/C=C/c2ccccc2)cc1O [trans-3,4-Dihydroxystilbene] | – | – | 96.68% | 89.23% | 99.27% | – | – | – | 97.58% | – |
| Oc1cc(O)cc(/C=C/c2ccccc2)c1 [trans-3,5-Dihydroxystilbene] | – | – | 12.24% | 0.62% | 24.82% | −5.24% | 14.91% | −5.38% | 19.97% | – |
| Oc1ccc(/C=C/c2ccc(O)cc2)cc1 [trans-4,4′-Dihydroxystilbene] | – | – | 90.66% | 85.23% | 68.37% | 85.31% | 62.11% | 89.23% | 67.17% | – |
| Oc1ccc(/C=C/c2ccccc2)cc1 [trans-4-Hydroxystilbene] | – | – | 43.36% | 29.23% | 32.85% | 6.64% | 19.88% | −2.31% | -5.14% | – |
